Reference: patent publication US20160367497A1, “METHODS AND COMPOSITIONS FOR TREATING NEUROPATHIES” (Washington University, priority 2007, published 2016)

Experiments:
[1] = tested on: DRG neuronal explant cultures; experiment: in vitro Wallerian degeneration assay, DRG explant neurite transection; assay type: cell-based, mouse; details: lentivirus-mediated expression in DRG neurons
Protocol: To identify the mechanism of delayed axonal degeneration mediated by the Wlds protein, we employed an in-vitro Wallerian degeneration model. Primary DRG explant neurons were infected with lentivirus expressing the appropriate proteins, and axons were injured by either removal of the neuronal cell body (transection) or growth in vincristine (toxic).
Mouse DRG explants from E12.5 embryos were cultured in the presence of 1 nM nerve growth factor. Non-neuronal cells were removed from the cultures by adding 5-fluorouracil to the culture medium. Transection of neurites was performed at 10-20 DIV using an 18-gauge needle to remove the neuronal cell bodies. Incubation with β-nicotinamide adenine dinucleotide (Sigma) or Sirtinol (Calbiochem) was performed using conditions indicated in the text or figures.
Quantitative analysis of axonal degeneration was performed as previously described (Zhai, et al., Neuron 39:217-25, 2003). Briefly, the cultures were examined using phase contrast microscopy at the indicated times. Axons with a fragmented, non-refractile appearance were designated as “degenerated.” At each time point, at least 200 singly distinguishable axons were blindly scored from several randomly taken images of each culture. Each condition was tested in triplicate explants in each experiment. Results were obtained from 2-4 independent experiments for each condition. Statistical analysis was performed by Student's T test. For calculations of neurite-covered area, digitally captured images from quadruplicate samples of two independent experiments were analyzed using analysis 3.1 software (Soft Imaging System, Lakewood, Colo.).
Cell culture, in vitro axotomy, and quantification of axonal degeneration. Mouse DRG explants from E12.5 embryos were cultured in the DMEM containing 10% FCS and 1 nM nerve growth factor. Non-neuronal cells were removed from the cultures by adding 5-fluorouracil to the culture media. Transection of neurites was performed at 14-21 DIV using an 18-gauge needle to remove the neuronal cell bodies. Lentiviral expression vectors were generated. Lentiviral infection was performed 3-7 days prior to axonal transection for 24 hr. Quantitative analysis of neurite degeneration was performed.

[2] = NMNAT enzymatic assay (NAD production); assay type: biochemical; details: protein from HEK293/HEK293T cells; NAD generated in 1 h
Protocol: […]
NMNAT protein overexpression, affinity purification and enzymatic assay. […] Relative NMNAT enzymatic activity was measured by using affinity purified proteins as described before and subtracted the value obtained from mock transfected cells and normalized by the amount of recombinant protein determined by densitometry.

NMNAT3: murine nicotinamide mononucleotide adenylyltransferase3
axonal/neurite degeneration after transection [1]: same extent of delay in neurite degeneration as well as NMNAT1
NMNAT enzymatic activity (NAD synthesis) [2]: comparable enzymatic activity compared with NMNAT1
